# In US20080085871A1, “Novel polysaccharide pro-drug 5-fluorouracil (5-FU) with enhanced target specificity for colorectal cancer and its preparation methods” (priority 2006, published 2008):
# What was measured:
# HT-29 cell = assay: In vitro suppression of HT-29 cell proliferation; type: cell-based; conditions: Homo sapiens, details not enclosed, read-out: IC50 for suppressing HT-29 cell proliferation
# Description: (§1) However, it should be understood that the 5-FU prodrug exerts its efficacy after it is digested and hydrolyzed at the target sites in the body. Because it is a prodrug, it has no direct effect on in vitro colorectal cancer cell lines.
# normal mice = assay: Survival of normal mice after 7-day treatment (toxicological effects); type: in vivo; conditions: for Survival Rate (%) after 7-day Treatment / Survivors/total after 7-day Treatment: normal mice, n = 10
# Method: Normal mice are administered with 7.5, 22.5, or 67.5 mg/kg/d of 5-FU and the 5-FU prodrug (as equivalent 5-FU dose). […]
# [1] = system: mice with colorectal cancer induced by DMH-DSS; assay: Therapeutic effects on mice with colorectal cancer induced by DMH-DSS; type: in vivo; conditions: 22.5 mg/kg/d equivalent 5-FU, two 7-day treatment periods with 7 days rest (21 days)
# Description: The doses delivered are equivalent with 1 time per day for 7 days as one treatment period, and then another period of treatment after 7 days of rest (i.e., a total of 21 days, two treatment periods with one week of rest in between).
# [2] = Distribution of 5-FU in different parts of the GI tract after oral feeding to mice; type: in vivo; parameters: key to 5-FU (μg/g) Stomach / 5-FU (μg/g) Proximal Small Intestine / 5-FU (μg/g) Distal Small Intestine / 5-FU (μg/g) Ileum and Cecum / 5-FU (μg/g) Colon and Rectum: —: dashed lines represent undetectable levels of 5-FU; conditions: for 5-FU (μg/g) Colon and Rectum / 5-FU (μg/g) Distal Small Intestine / 5-FU (μg/g) Ileum and Cecum / 5-FU (μg/g) Proximal Small Intestine / 5-FU (μg/g) Stomach: oral 22.5 mg/kg, n = 6, x ± s
# Description: Note that the dashed lines represent undetectable levels of 5-FU.
# COLO-205 cell = assay: In vitro suppression of COLO-205 cell proliferation; type: cell-based; conditions: Homo sapiens, details not enclosed, read-out: IC50 for suppressing COLO-205 cell proliferation
# Description: as §1
# [3] = 7.5 mg/kg/d (equivalent 5-FU dose)
# [4] = 22.5 mg/kg/d (equivalent 5-FU dose)
# [5] = 67.5 mg/kg/d (equivalent 5-FU dose)
compound,measurement,setting,value
"O=c1[nH]cc(F)c(=O)[nH]1 [Example 5-FU, 5-fluorouracil]",IC50,HT-29 cell,13 µM
same,Survival Rate (%) after 7-day Treatment,normal mice; [3],100%
same,Survivors/total after 7-day Treatment,normal mice; [3],(10/10)
same,Survival Rate (%) after 7-day Treatment,normal mice; [4],70%
same,Survivors/total after 7-day Treatment,normal mice; [4],(7/10)
same,Survival Rate (%) after 7-day Treatment,normal mice; [5],0%
same,Survivors/total after 7-day Treatment,normal mice; [5],(0/10)
same,toxic effects in the first dose,"normal mice; normal mice, 7.5, 22.5, or 67.5 mg/kg/d, first dose",no obvious toxic effects
same,Survival at the End of the Study,[1]; n = 10,5/10
same,Survival Rate,"[1]; n = 10, listed as Generic 5-Fluorouracil (5-FU)",50%
same,Survival Rate,"[1]; n = 10, listed as generic 5-FU",50%
same,Tumor Weight Index,[1]; x ± s,447 ± 113.5 mg/g
same,Tumor Weight as Compared to the Saline Control,[1]; listed as Generic 5-Fluorouracil (5-FU),65%
same,Tumor Weight as Compared to the Saline Control,[1]; listed as generic 5-FU,65%
same,main site of distribution / detection in the GI tract,[2]; fed orally,mucosa of stomach and proximal part of the small intestine
same,5-FU (μg/g) Colon and Rectum,[2]; 1 hr,—
same,5-FU (μg/g) Distal Small Intestine,[2]; 1 hr,0.42 ± 0.21 µg/g
same,5-FU (μg/g) Ileum and Cecum,[2]; 1 hr,—
same,5-FU (μg/g) Proximal Small Intestine,[2]; 1 hr,1.75 ± 0.24 µg/g
same,5-FU (μg/g) Stomach,[2]; 1 hr,3.04 ± 0.49 µg/g
same,5-FU (μg/g) Colon and Rectum,[2]; 2.5 hr,0.25 ± 0.12 µg/g
same,5-FU (μg/g) Distal Small Intestine,[2]; 2.5 hr,0.43 ± 0.24 µg/g
same,5-FU (μg/g) Ileum and Cecum,[2]; 2.5 hr,0.37 ± 0.12 µg/g
same,5-FU (μg/g) Proximal Small Intestine,[2]; 2.5 hr,0.64 ± 0.42 µg/g
same,5-FU (μg/g) Stomach,[2]; 2.5 hr,1.97 ± 0.31 µg/g
same,5-FU (μg/g) Colon and Rectum,[2]; 3.5 hr,0.41 ± 0.24 µg/g
same,5-FU (μg/g) Distal Small Intestine,[2]; 3.5 hr,0.62 ± 0.12 µg/g
same,5-FU (μg/g) Ileum and Cecum,[2]; 3.5 hr,0.42 ± 0.21 µg/g
same,5-FU (μg/g) Proximal Small Intestine,[2]; 3.5 hr,0.53 ± 0.32 µg/g
same,5-FU (μg/g) Stomach,[2]; 3.5 hr,1.12 ± 0.46 µg/g
same,5-FU (μg/g) Colon and Rectum,[2]; 4.5 hr,0.56 ± 0.06 µg/g
same,5-FU (μg/g) Distal Small Intestine,[2]; 4.5 hr,0.35 ± 0.21 µg/g
same,5-FU (μg/g) Ileum and Cecum,[2]; 4.5 hr,0.37 ± 0.12 µg/g
same,5-FU (μg/g) Proximal Small Intestine,[2]; 4.5 hr,0.42 ± 0.91 µg/g
same,5-FU (μg/g) Stomach,[2]; 4.5 hr,0.97 ± 0.23 µg/g
same,5-FU (μg/g) Colon and Rectum,[2]; 6 hr,0.17 ± 0.04 µg/g
same,5-FU (μg/g) Distal Small Intestine,[2]; 6 hr,0.31 ± 0.09 µg/g
same,5-FU (μg/g) Ileum and Cecum,[2]; 6 hr,0.21 ± 0.11 µg/g
same,5-FU (μg/g) Proximal Small Intestine,[2]; 6 hr,0.37 ± 0.05 µg/g
same,5-FU (μg/g) Stomach,[2]; 6 hr,0.63 ± 0.31 µg/g
same,5-FU (μg/g) Colon and Rectum,[2]; 9 hr,0.08 ± 0.05 µg/g
same,5-FU (μg/g) Distal Small Intestine,[2]; 9 hr,0.17 ± 0.06 µg/g
same,5-FU (μg/g) Ileum and Cecum,[2]; 9 hr,0.03 ± 0.01 µg/g
same,5-FU (μg/g) Proximal Small Intestine,[2]; 9 hr,0.17 ± 0.04 µg/g
same,5-FU (μg/g) Stomach,[2]; 9 hr,0.33 ± 0.18 µg/g
same,5-FU (μg/g) Colon and Rectum,[2]; 12 hr,0.05 ± 0.02 µg/g
same,5-FU (μg/g) Distal Small Intestine,[2]; 12 hr,0.07 ± 0.04 µg/g
same,5-FU (μg/g) Ileum and Cecum,[2]; 12 hr,0.04 ± 0.02 µg/g
same,5-FU (μg/g) Proximal Small Intestine,[2]; 12 hr,0.03 ± 0.01 µg/g
same,5-FU (μg/g) Stomach,[2]; 12 hr,0.06 ± 0.03 µg/g
same,5-FU (μg/g) Colon and Rectum,[2]; 15 hr,—
same,5-FU (μg/g) Distal Small Intestine,[2]; 15 hr,—
same,5-FU (μg/g) Ileum and Cecum,[2]; 15 hr,—
same,5-FU (μg/g) Proximal Small Intestine,[2]; 15 hr,—
same,5-FU (μg/g) Stomach,[2]; 15 hr,—
same,IC50,COLO-205 cell,3.2 µM
